Experimental data from ChEMBL document CHEMBL4765237, “Structural optimization and structure-activity relationship studies of N-phenyl-7,8-dihydro-6H-pyrimido[5,4-b][1,4]oxazin-4-amine derivatives as a new class of inhibitors of RET and its drug resistance mutants” (Eur J Med Chem, 2018).
Calls of active or inactive are those of the source. The rule behind the calls is not given here.

Legend:
BGC-823 = assay: Growth inhibition of human BGC-823 cells incubated for 3 days by MTT assay; assay type: functional; conditions: BGC-823, 72 h, time 3 day
[1] = molecular target: Discoidin domain-containing receptor 2 (Homo sapiens, UniProt Q16832); assay: Inhibition of recombinant human DDR2 (467 to end residues) using KKSRGDYMTMQIG as substrate incubated for 40 mins in presence of [gamma-33ATP] by scintillation counting based radiometry assay
[2] = molecular target: Vascular endothelial growth factor receptor 1 (Homo sapiens, UniProt P17948)
Vascular endothelial growth factor receptor 1, sequence (P17948 whole entry): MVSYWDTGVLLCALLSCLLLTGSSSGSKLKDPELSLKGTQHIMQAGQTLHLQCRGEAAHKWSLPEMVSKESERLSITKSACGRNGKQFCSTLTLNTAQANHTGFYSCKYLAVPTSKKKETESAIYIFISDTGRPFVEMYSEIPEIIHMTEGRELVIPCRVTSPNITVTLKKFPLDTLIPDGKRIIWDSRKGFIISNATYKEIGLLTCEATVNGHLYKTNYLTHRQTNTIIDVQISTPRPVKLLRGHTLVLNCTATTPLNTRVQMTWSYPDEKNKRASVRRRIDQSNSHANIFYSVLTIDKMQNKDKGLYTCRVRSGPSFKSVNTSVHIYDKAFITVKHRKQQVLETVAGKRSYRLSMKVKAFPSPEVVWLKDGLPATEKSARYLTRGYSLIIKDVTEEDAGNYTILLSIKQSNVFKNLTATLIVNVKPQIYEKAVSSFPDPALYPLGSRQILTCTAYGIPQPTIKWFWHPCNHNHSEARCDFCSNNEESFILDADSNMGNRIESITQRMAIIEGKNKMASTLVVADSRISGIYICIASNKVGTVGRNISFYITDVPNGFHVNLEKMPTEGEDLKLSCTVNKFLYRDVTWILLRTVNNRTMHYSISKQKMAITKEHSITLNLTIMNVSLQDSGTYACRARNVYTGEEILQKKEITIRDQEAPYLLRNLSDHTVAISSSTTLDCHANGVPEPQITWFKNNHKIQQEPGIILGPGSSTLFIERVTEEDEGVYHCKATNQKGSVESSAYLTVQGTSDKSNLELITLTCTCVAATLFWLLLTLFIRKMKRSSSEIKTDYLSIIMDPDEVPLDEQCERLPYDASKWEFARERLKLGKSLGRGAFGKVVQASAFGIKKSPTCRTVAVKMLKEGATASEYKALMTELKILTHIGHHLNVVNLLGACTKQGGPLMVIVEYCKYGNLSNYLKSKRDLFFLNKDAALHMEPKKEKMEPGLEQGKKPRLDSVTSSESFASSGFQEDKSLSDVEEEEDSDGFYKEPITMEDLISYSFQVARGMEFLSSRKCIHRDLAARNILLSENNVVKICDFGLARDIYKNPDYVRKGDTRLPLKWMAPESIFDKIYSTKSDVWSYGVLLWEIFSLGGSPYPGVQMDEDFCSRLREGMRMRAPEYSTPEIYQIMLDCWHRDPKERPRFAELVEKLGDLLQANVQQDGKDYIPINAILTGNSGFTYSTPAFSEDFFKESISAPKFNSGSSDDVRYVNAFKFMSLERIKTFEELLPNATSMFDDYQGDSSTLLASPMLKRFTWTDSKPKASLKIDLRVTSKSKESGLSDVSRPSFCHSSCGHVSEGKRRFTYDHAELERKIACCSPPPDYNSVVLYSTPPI

SK-MEL-1 = assay: Growth inhibition of human SK-MEL-1 cells incubated for 3 days by MTT assay; assay type: functional; conditions: SK-MEL-1, 72 h, time 3 day
[3] = molecular target: Serine/threonine-protein kinase Nek9 (Homo sapiens, UniProt Q8TD19); assay: Inhibition of recombinant human NEK9 (1 to 324 residues) using myelin basic protein as substrate measured after 40 mins in presence of [gamma33P]ATP by scintillation counting based radiometry assay
[4] = Tmax in Sprague-Dawley rat at 10 mg/kg, po measured upto 24 hrs by LC-MS/MS analysis; assay type: ADME, organism-based; conditions: in vivo
[5] = molecular target: Tyrosine-protein kinase Blk (Homo sapiens, UniProt P51451); assay: Inhibition of recombinant full length human BLK using poly(Glu, Tyr) 4:1 as substrate incubated for 40 mins in presence of [gamma-33ATP] by scintillation counting based radiometry assay
Tyrosine-protein kinase Blk, sequence (P51451 whole entry): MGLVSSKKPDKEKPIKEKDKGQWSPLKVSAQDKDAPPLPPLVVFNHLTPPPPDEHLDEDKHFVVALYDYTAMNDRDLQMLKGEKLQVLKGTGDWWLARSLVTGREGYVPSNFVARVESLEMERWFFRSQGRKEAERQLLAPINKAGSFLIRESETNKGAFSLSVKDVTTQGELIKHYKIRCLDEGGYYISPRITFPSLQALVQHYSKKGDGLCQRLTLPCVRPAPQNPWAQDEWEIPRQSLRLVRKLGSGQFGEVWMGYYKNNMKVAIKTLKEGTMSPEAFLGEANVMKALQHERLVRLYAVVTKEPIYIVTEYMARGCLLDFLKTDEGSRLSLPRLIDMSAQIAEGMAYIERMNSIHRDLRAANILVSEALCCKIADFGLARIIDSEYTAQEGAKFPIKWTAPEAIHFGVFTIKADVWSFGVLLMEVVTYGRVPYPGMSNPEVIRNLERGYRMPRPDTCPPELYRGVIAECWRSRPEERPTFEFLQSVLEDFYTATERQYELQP

Mus musculus [6] = organism: Mus musculus; conditions: NOD-SCID, dose 30.0 mg/kg, time 18.0 day
[7] = Inhibition of colony formation in […] NIH3T3 cells at > 1 uM incubated for 10 days by crystal violet assay relative to control; assay type: functional; conditions: dose microM >1; time 10 day
Ramos = assay: Growth inhibition of human Ramos cells incubated for 3 days by MTT assay; assay type: functional; conditions: 72 h, time 3 day
[8] = molecular target: Interleukin-1 receptor-associated kinase 1 (Homo sapiens, UniProt P51617); assay: Inhibition of human IRAK1 (194 to end residues) using myelin basic protein as substrate after 40 mins by [gamma-33ATP] radiometric assay
[9] = molecular target: Platelet-derived growth factor receptor beta (Homo sapiens, UniProt P09619); assay: Inhibition of human PDGFRbeta (557 to end residues) using poly(Glu, Tyr) 4:1 as substrate measured after 40 mins in presence of [gamma33P]ATP by scintillation counting based radiometry assay
Platelet-derived growth factor receptor beta, sequence (P09619 whole entry): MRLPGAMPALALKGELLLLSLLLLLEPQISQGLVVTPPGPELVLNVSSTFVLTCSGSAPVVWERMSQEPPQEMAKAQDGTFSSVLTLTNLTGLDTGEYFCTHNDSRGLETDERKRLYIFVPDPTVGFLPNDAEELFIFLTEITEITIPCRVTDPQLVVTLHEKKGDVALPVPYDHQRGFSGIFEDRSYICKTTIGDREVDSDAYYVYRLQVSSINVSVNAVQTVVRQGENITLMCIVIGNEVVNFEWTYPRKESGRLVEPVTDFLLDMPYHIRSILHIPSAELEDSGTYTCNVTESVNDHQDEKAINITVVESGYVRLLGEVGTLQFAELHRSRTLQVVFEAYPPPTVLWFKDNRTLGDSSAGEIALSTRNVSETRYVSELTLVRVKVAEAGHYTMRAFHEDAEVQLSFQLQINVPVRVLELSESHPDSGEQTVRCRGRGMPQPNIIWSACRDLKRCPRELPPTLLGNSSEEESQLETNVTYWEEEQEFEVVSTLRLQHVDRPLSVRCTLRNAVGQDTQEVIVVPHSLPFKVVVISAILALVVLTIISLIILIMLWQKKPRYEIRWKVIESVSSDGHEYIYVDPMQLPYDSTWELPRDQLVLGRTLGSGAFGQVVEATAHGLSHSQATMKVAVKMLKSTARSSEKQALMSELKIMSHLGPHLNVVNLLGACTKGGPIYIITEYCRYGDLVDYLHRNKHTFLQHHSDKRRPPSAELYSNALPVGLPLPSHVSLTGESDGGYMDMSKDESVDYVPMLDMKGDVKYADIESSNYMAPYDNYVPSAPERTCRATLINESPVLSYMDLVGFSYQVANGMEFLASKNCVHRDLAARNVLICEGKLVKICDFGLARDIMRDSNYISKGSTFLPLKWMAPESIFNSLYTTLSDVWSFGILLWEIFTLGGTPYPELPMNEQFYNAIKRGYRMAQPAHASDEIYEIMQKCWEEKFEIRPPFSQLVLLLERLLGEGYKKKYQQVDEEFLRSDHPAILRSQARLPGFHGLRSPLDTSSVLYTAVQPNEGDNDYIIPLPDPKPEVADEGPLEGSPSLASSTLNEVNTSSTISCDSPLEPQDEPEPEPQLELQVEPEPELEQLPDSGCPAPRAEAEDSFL

BaF3 [10] = assay: Growth inhibition of mouse BaF3 cells harboring RET V804M mutant incubated for 3 days by MTT assay; assay type: functional; conditions: BaF3, 72 h, time 3 day
Ephrin type-A receptor 2 = Ephrin type-A receptor 2 (Homo sapiens, UniProt P29317); assay: Inhibition of recombinant human EphA2 (596 to 900 residues) using poly(Glu, Tyr) 4:1 as substrate incubated for 40 mins in presence of [gamma-33ATP] by scintillation counting based radiometry assay
Ephrin type-A receptor 2, sequence (P29317 whole entry, the tested form may be a part): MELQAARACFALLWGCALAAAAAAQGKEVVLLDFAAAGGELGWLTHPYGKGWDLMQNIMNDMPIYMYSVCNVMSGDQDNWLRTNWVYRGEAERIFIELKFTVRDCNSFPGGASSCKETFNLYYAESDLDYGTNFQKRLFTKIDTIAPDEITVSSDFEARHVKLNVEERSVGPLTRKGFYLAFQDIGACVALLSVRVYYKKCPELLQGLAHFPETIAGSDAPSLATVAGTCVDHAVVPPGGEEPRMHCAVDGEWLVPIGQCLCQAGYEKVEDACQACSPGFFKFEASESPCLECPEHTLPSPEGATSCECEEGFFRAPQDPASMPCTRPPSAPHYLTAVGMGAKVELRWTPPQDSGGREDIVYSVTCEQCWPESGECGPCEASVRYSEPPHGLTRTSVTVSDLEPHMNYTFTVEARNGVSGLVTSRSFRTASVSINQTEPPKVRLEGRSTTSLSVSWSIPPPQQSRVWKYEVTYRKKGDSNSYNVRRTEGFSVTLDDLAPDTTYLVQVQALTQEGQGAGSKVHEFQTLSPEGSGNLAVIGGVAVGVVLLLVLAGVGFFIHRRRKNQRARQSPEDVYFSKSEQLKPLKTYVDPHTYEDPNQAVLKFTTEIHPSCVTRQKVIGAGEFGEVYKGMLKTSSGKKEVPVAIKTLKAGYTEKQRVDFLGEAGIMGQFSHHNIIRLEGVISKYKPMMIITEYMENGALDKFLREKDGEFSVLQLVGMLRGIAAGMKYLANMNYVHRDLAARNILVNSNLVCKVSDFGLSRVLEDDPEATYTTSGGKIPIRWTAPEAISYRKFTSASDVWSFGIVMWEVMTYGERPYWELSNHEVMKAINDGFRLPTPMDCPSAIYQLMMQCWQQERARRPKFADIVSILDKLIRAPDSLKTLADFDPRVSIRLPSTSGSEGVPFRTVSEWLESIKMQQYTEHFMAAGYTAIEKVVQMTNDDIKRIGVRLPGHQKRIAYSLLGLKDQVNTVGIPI

Mus musculus [11] = organism: Mus musculus; conditions: NOD-SCID, dose 30.0 mg/kg, time 18.0 day; remark: listed apart in the source
MGC-803 = assay: Growth inhibition of human MGC-803 cells incubated for 3 days by MTT assay; assay type: functional; conditions: MGC-803, 72 h, time 3 day
[12] = molecular target: Tyrosine-protein kinase HCK (Homo sapiens, UniProt P08631); assay: Inhibition of human HCK (230 to 497 residues) using […] as substrate after 40 mins by [gamma-33ATP] radiometric assay
[13] = molecular target: Serine/threonine-protein kinase WNK3 (Homo sapiens, UniProt Q9BYP7); assay: Inhibition of recombinant human WNK3 (1 to 434 residues) using myelin basic protein as substrate incubated for 40 mins in presence of [gamma33P]ATP by scintillation counting based radiometry assay
[14] = molecular target: Platelet-derived growth factor receptor alpha (Homo sapiens, UniProt P16234); assay: Inhibition of human PDGFRalpha (550 to end residues) using poly(Glu, Tyr) 4:1 as substrate measured after 40 mins in presence of [gamma33P]ATP by scintillation counting based radiometry assay
Angiopoietin-1 receptor = Angiopoietin-1 receptor (Homo sapiens, UniProt Q02763); assay: Inhibition of recombinant human TIE2 (771 to end residues) using poly(Glu, Tyr) 4:1 as substrate incubated for 40 mins in presence of [gamma33P]ATP by scintillation counting based radiometry assay
[15] = molecular target: Casein kinase I isoform delta (Homo sapiens, UniProt P48730); assay: Inhibition of recombinant human CK1delta (1 to 294 residues) using KRRRALS(p)VASLPGL as substrate incubated for 40 mins in presence of [gamma-33ATP] by scintillation counting based radiometry assay
Mus musculus [16] = organism: Mus musculus; conditions: NOD-SCID, dose 30.0 mg/kg, time 18.0 day; remark: listed apart in the source
[17] = molecular target: Fibroblast growth factor receptor 1 (Homo sapiens, UniProt P11362)
[18] = Growth inhibition of human Ocut-2C cells incubated for 3 days by MTT assay; assay type: functional; conditions: OCUT2C, 72 h, time 3 day
NCI-H1975 = assay: Growth inhibition of human NCI-H1975 cells incubated for 3 days by MTT assay; assay type: functional; conditions: NCI-H1975, 72 h, time 3 day
[19] = molecular target: Tyrosine-protein kinase ITK/TSK (Homo sapiens, UniProt Q08881); assay: Inhibition of human ITK (352 to 617 residues) using myelin basic protein as substrate after 40 mins by [gamma-33ATP] radiometric assay
Aurora kinase B = Aurora kinase B (Homo sapiens, UniProt Q96GD4); assay: Inhibition of recombinant full length human Aurora B using AKRRRLSSLRA as substrate incubated for 40 mins in presence of [gamma-33ATP] by scintillation counting based radiometry assay
Aurora kinase B, sequence (Q96GD4 whole entry): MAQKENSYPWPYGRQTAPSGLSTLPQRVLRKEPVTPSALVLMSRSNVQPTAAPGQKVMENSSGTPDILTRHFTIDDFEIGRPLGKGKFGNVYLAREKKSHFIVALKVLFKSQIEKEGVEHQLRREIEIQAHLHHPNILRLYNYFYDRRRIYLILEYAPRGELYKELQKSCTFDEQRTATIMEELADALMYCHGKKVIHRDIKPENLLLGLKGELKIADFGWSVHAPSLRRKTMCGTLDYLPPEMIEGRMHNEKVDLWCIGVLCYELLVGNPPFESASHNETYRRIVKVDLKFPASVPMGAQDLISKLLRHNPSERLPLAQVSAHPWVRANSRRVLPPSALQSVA

NIH3T3 = conditions: Homo sapiens, dose 10-30 mg/kg, time 18.0 day
[20] = molecular target: RAF proto-oncogene serine/threonine-protein kinase (Homo sapiens, UniProt P04049); assay: Inhibition of recombinant human C-Raf (306 to end residues) poly(Glu, Tyr) 4:1 as substrate incubated 40 mins in presence of [gamma-33ATP] by scintillation counting based radiometry assay
HGC-27 = assay: Growth inhibition of human HGC-27 cells incubated for 3 days by MTT assay; assay type: functional; conditions: HGC-27, 72 h, time 3 day
BaF3 [21] = assay type: functional; conditions: Mus musculus, BaF3, 72 h; time 3 day
[22] = Growth inhibition of […] NIH3T3 cells incubated for 3 days by MTT assay; assay type: functional; conditions: NIH3T3, 72 h; time 3 day
[23] = Volume of distribution at steady state in Sprague-Dawley rat at 10 mg/kg, po measured upto 24 hrs by LC-MS/MS analysis; assay type: ADME, organism-based; conditions: in vivo
Ephrin type-B receptor 2 = Ephrin type-B receptor 2 (Homo sapiens, UniProt P29323); assay: Inhibition of recombinant human EphB2 (560 to end residues) using poly(Glu, Tyr) 4:1 as substrate incubated for 40 mins in presence of [gamma-33ATP] by scintillation counting based radiometry assay
[24] = molecular target: Tyrosine-protein kinase FRK (Homo sapiens, UniProt P42685); assay: Inhibition of recombinant human PTK5 (218 to end residues) using GGEEEEYFELVKKKK as substrate incubated for 40 mins in presence of [gamma33P]ATP by scintillation counting based radiometry assay
Tyrosine-protein kinase FRK, sequence (P42685 whole entry): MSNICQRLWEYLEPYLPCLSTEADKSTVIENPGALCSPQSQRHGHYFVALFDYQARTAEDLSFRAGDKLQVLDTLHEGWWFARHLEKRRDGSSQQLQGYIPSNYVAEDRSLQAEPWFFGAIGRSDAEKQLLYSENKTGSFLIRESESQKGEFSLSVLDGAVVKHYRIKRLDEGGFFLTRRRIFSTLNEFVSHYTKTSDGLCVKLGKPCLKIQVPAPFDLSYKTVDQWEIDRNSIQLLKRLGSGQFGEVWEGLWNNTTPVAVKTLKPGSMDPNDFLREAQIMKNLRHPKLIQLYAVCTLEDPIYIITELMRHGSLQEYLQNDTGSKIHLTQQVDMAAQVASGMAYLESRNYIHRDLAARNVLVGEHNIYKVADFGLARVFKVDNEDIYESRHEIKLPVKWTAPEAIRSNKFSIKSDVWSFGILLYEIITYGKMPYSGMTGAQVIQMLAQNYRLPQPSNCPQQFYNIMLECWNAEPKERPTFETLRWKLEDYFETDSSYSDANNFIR

Work on `CC(C)(C)c1cc(NC(=O)Nc2ccc(Nc3ncnc4c3OCCCN4)cc2)no1` yielded a GI50 (BGC-823) of 8.47 µM, an IC50 [1] of 55 nM and an IC50 [2] of 8 nM. The GI50 (SK-MEL-1) was greater than 10 µM, the IC50 [3] was 1800 nM and the Tmax [4] was 15 min. For the same compound, the IC50 [5] was 1910 nM, the inhibition (Mus musculus [6]) was “Active” and the “inhibition (INH)” value [7] was 100%. It also gave a GI50 (Ramos) greater than 10 µM, an IC50 [8] of 179 nM and an IC50 [9] of 686 nM. The GI50 (BaF3 [10]) was 930 nM, the IC50 (Ephrin type-A receptor 2) was 104 nM and the inhibition (Mus musculus [11]) was “Active”. It also gave a GI50 (MGC-803) of 4.31 µM, an IC50 [12] of 87 nM and an IC50 [13] of 494 nM. For the same compound, the IC50 [14] was 262 nM, the IC50 (Angiopoietin-1 receptor) was 408 nM and the IC50 [15] was 509 nM. For the same compound, the inhibition (Mus musculus [16]) was “Active”, the IC50 [17] was 868 nM and the GI50 [18] was greater than 10 µM. It also gave a GI50 (NCI-H1975) greater than 10 µM, an IC50 [19] of 338 nM and an IC50 (Aurora kinase B) of 1630 nM. For the same compound, the TGI (NIH3T3) was “Dose-dependent effect”, the IC50 [20] was 232 nM and the GI50 (HGC-27) was 5.76 µM. It also gave a GI50 (BaF3 [21]) of 1130 nM, a GI50 [22] greater than 10 µM and a Vdss [23] of 0.05 L/kg. It also gave an IC50 (Ephrin type-B receptor 2) of 1090 nM and an IC50 [24] of 51 nM.
